Experiments:
Assay type in all cases: in vivo, Sprague-Dawley rats
[1] = system: neuropathic pain (mechanical allodynia) in SCI, LSS and SNI animal models; experiment: Mechanical allodynia (von Frey, 50% threshold) in SCI, LSS and SNI neuropathic pain models
Protocol: To be used as a central nerve injury animal model, a traumatic spinal cord injury (SCI) model was prepared (FIG. 1A). Specifically, 230 to 250 g of male adult Sprague-Dawley rats were anesthetized by intraperitoneal injection of chloral hydrate (500 mg/kg), and then the back and neck regions were shaved, and the spinal cord under the back and neck regions was exposed without damaging the dura mater, and a laminectomy was performed at T9 to T10 levels. To stabilize the spine, the spinous processes of T8 and T11 were fixed, and the spine was damaged by free-falling a 10 g weight from a height of 25 mm using an NYU impactor onto the back surface of the exposed spinal cord and then the rats were left in a temperature and humidity-controlled chamber overnight while covering the muscles and skin. After surgery, the rats were subcutaneously injected with a supplement solution (5 ml, lactated ringer) and injected with antibiotics (gentamicin, 5 mg/kg, intramuscular injection) once daily for 5 days. The body weight, remaining food, and the weight of water were confirmed and recorded for all animals, and the bladder was emptied twice daily by passive bladder massage until reflex micturition was established. At this time, a Sham group was a group that was subjected to only laminectomy without damage.
To be used as a peripheral nerve injury animal model, a lumbar spinal stenosis (LSS) model was prepared (FIG. 1B). Specifically, 260 to 280 g of adult male Sprague-Dawley rats were anesthetized with intraperitoneal injection of chloral hydrate (500 mg/kg), the back region was shaved, and then the spinal plate was exposed at L4 to S2 levels. After removing the ligamentous section between L4 and L5, a trapezoidal silicone block (1.00 mm long×1.3 to 1.2 mm wide×1.0 mm high) was inserted into the epidural space below the L5 and L6 spinal plates without damaging the dural sac. At this time, a Sham group was a group that was subjected to only posterior […] on the animal without inserting a silicone block.
(§1) To be used as a peripheral nerve injury animal model, a sciatic nerve injury (SNI) model was prepared (FIG. 1C). Specifically, 200 to 220 g of male adult Sprague-Dawley rats were anesthetized by intraperitoneal injection of chloral hydrate (500 mg/kg), and then three terminal branches (tibial, common peroneal, and sural nerves) of the right sciatic nerve were approached, and the tibia nerve and the peroneal nerve were tightly ligated with 4-0 silk, and neurectomy was performed at a distal 3 mm position of the ligation site. At this time, a Sham group was a group that exposed only the sciatic nerve without damage.
In order to confirm a neuropathic pain inhibitory effect of YJ102 (Chemical Formula 1), a compound of the present disclosure, in the three nerve injury animal models prepared in Example 1 above, rats having pain on week 3 (SNI model) or week 4 (SCI model and LSS model) after surgery were selected and administered orally (p.o.) at 10 mg/kg or 20 mg/kg of YJ102 dissolved in a solution of DMSO, methyl pyrrolidinone, and water (1:1.5:1), or intraperitoneally injected (i.p. injection) at 1, 2, or 5 mg/kg of YJ102. In a positive control group, gabapentin or pregabalin dissolved in saline was intraperitoneally injected at a concentration of 5 mg/kg, and in a Vehicle group, the same amount of a solution of DMSO, methyl pyrrolidinone, and water was administered. Thereafter, in order to measure mechanical allodynia, the rats were located at the bottom of a transparent plastic box (10 cm×10 cm) on top of a wire mesh (3 mm×3 mm) and subjected to an adaptation period for approximately 20 minutes. Von-Frey filaments were applied to the soles of both paws and used with stiff nylon von-Frey monofilament series ([…], Stoelting, WoodDale, IL, USA; equivalent in grams to 0.4, 0.6, 1.0, 2.0, 4.0, 6.0, 8.0 and 15.0) with logarithmic increases in tactile (mechanical) sensitivity. […]

MPO-positive neutrophils = experiment: Introduction of neutrophils (MPO) into bladder of SCI model, immunofluorescence; conditions: day 1 after SCI
[2] = system: ED-1-positive macrophages; experiment: Introduction of macrophages (ED-1) into bladder of SCI model, immunofluorescence; conditions: day 7 after SCI
[3] = system: inflammatory factors (IL-6, iNOS, COX-2, IL-1β, TNF-α, MIP-1α, MIP-1β, MIP-2α, Gro-α, and MCP-1); experiment: Inflammatory factor expression in spinal cord of SNI model, RT-PCR and Western blot; conditions: ipsilateral L4-5 spinal cord
Protocol: as §1
It was known that when neuropathic pain occurred, the activation of microglia and astrocytes expressed inflammatory factors including cytokines and chemokines to cause excessive excitation of surrounding neurons. Therefore, in order to confirm changes in inflammatory factor expression by YJ102 administration in the SNI animal model 4 weeks after nerve injury, RNA and protein were extracted from L4-5 spinal cord tissue and RT-PCR and Western blot analysis were performed. Specifically, for RT-PCR analysis, RNA was isolated from spinal cord tissue sections using a TRIZOL Reagent (Invitrogen) according to a manual, and 20 μl of the total mixture was prepared by using 1 μg of total RNA, and cDNA was synthesized using MMLV reverse transcriptase (Invitrogen). […]

mTOR pathway = mTOR pathway in SNI model, Western blot; conditions: 4 weeks after nerve injury
Protocol: FIG. 5B is a diagram showing results of analyzing the expression of factors associated with a mTOR signaling pathway in an inflammation-inhibiting mechanism in an SNI animal model by Western blot.
To determine through which signaling pathway YJ102 inhibited a neuroinflammatory response, there was analyzed increased expression and activation of histone demethylase JMJD3 and expression changes of factors associated with JAK/STAT3 pathway, mTOR pathway, and TRPM7-mediated pathway, which were known as important regulatory mechanisms and epigenetic regulators mediating the neuroinflammatory response, in the tissues of the SNI animal model 4 weeks after nerve injury.

[4] = p.o. 10 mg/kg or 20 mg/kg, all three models (SCI, LSS, SNI)

Compound: CCc1ccc(N(C(=O)COC)c2nc3cc(Cl)ccc3o2)cc1 [YJ102]
- duration of analgesic effect relative to existing drugs (gabapentin, pregabalin) ([1]; i.p.): more than three times longer
- analgesic effect relative to gabapentin or pregabalin ([1]; i.p., at the same concentration as gabapentin or pregabalin): more than twice as high
- duration of analgesic effect [1, 4]: ≥ 4 h
- mechanical allodynia threshold increased from (time after administration) [1, 4]: 30 min
- introduction of MPO-positive neutrophils into the bladder (MPO-positive neutrophils): significantly inhibited
- introduction of ED-1-positive macrophages into the bladder [2]: significantly inhibited
- expression of inflammatory factors ([3]; RT-PCR): significantly reduced
- expression of inflammatory factors ([3]; Western blot): significantly reduced
- activity of S6 (mTOR pathway): inhibiting the activity
- activity of p70S6kinase (mTOR pathway): inhibiting the activity

Source: US20260335293A1, “USE OF NOVEL COMPOUND FOR TREATING INTRACTABLE DISEASES” (YJ CERAPEUTICS INC., priority 2023, published 2026)
